Each structure is given as a SMILES string.

The pKi is the Ki on a negative log10 scale, so that one unit is a factor of ten. High values mean a low Ki, low ones a high Ki.

Assay [1] deals with D(3) dopamine receptor (Homo sapiens) (UniProt P35462).
Description: Displacement of [3H]7-OH-DPAT from human Dopamine receptor D3
Assay [2] concerns the target D(2) dopamine receptor (Homo sapiens) (UniProt P14416).
Description: Displacement of [3H]spiperone from human Dopamine receptor D2
Assay [3] deals with T1, D(4) dopamine receptor (Homo sapiens) (UniProt P21917).
T1 sequence (whole entry): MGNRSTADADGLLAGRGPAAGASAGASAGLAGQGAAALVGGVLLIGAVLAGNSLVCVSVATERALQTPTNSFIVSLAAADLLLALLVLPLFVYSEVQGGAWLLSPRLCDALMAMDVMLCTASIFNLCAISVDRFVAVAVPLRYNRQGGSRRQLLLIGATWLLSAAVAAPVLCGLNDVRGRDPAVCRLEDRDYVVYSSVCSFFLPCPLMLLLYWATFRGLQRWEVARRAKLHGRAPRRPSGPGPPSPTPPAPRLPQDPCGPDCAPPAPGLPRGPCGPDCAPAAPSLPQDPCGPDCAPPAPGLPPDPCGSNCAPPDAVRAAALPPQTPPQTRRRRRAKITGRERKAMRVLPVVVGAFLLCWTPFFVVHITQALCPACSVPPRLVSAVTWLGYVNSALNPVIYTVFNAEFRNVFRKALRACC
Description: Displacement of [3H]spiperone from human Dopamine receptor D4

Chain of D(2) dopamine receptor (Homo sapiens) (P14416 whole entry): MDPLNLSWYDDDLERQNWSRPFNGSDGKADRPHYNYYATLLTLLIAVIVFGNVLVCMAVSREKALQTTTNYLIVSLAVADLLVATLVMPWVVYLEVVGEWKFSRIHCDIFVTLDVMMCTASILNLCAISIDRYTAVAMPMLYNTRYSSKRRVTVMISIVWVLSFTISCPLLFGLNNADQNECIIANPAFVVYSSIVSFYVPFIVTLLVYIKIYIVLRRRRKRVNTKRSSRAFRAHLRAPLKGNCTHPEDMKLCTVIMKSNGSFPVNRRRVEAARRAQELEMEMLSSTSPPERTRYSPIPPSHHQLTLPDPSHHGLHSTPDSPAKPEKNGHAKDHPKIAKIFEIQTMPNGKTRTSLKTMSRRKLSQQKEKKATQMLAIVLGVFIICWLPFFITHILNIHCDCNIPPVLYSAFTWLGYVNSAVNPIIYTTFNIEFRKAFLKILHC
Chain of D(3) dopamine receptor (Homo sapiens) (P35462 whole entry): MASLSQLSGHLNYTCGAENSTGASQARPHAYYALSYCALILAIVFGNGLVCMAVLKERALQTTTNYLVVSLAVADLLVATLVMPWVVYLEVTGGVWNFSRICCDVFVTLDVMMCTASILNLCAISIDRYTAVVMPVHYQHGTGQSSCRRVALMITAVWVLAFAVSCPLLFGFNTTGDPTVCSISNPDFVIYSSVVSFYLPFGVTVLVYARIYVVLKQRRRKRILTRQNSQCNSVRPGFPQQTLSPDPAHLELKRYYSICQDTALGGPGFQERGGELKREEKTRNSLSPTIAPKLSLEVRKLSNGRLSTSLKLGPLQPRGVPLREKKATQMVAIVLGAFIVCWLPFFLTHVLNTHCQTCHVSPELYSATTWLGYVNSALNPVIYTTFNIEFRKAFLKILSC

In the case of `O=C(CCC[n+]1ccc(-c2ccc(Cl)cc2)cc1)c1ccc(F)cc1`, the pKi in assay [1], in assay [2] and in assay [3] was less than 6 in each case.
Turning to `O=C(CCCN1CCC(O)(Cc2ccc(Cl)cc2)CC1)c1ccc(F)cc1`, the pKi in assay [1] is 8.05; in assay [2], 8.1; in assay [3], 7.23.
In the case of `O=C(CCCN1CCCC(O)(c2ccc(Cl)cc2)CC1)c1ccc(F)cc1` (stereo not given), the pKi in assay [2] was 8.96.
Consider `CN(CCCC(=O)c1ccc(F)cc1)CCCC(O)c1ccc(Cl)cc1` (stereo not given), for which the pKi was 6.79 in assay [1] and 6.72 in assay [3].
Consider `O=C(CCCN1CCC(CO)(c2ccc(Cl)cc2)CC1)c1ccc(F)cc1`, for which the pKi stood at 6.96 in assay [1], 7.81 in assay [2] and 7.11 in assay [3].
For the molecule `O=C(CCCN1CCC(c2ccc(Cl)cc2)CC1)c1ccc(F)cc1`, the figures for the pKi in assay [1] and in assay [3] were 7.34 and 7.59, respectively.
`O=C(CCCN1CCC(CO)(c2ccc(Cl)cc2)C1)c1ccc(F)cc1` (stereo not given): the pKi was 6.78 in assay [1], 7.36 in assay [2] and 7.62 in assay [3].
The like results for `O=C(CCCN1CCC(C(O)c2ccc(Cl)cc2)CC1)c1ccc(F)cc1` (stereo not given) were, in that order, 7.11, 7.62 and 6.91.
The matching figures for `O=C(CCCN1CCC(CCO)(c2ccc(Cl)cc2)C1)c1ccc(F)cc1` (stereo not given): 7.49, 7.64 and 6.71.
Take `O=C(CCCN1CCC(c2ccc(Cl)cc2)C1)c1ccc(F)cc1` (stereo not given): the results for the pKi in assay [2] and in assay [3] were 7.81 and 7.82, respectively.

The record behind these values is ChEMBL document CHEMBL1148442, “Design, synthesis, and evaluation of metabolism-based analogues of haloperidol incapable of forming MPP+-like species” (J Med Chem, 2004).
